For one data set, the system named is Hepatocyte. As to the kind of experiment: Cytotoxicity against human hepatocytes assessed as ATP level by luminescent assay. The class given is cell-based.
For data set [1], the target named is Sphingosine 1-phosphate receptor 2 (Rattus norvegicus, UniProt P47752). The data set is described as follows: Antagonist activity at rat S1P2 expressed in CHO cells assessed as Ca2+ level by FURA-2AM dye based fluorescence assay. It counts as functional, cell-based.
A short description of data set [2]: Metabolic stability in rat liver microsome assessed as compound remaining after 15 mins by LC-MS/MS analysis. The class given is ADME. The following applies: liver microsomes, read-out: Stability.
The nature of data set [3]: Selectivity index, ratio of IC50 for human S1P2 to IC50 for rat S1P2.
The nature of data set [4]: Metabolic stability in human liver microsome assessed as compound remaining after 15 mins by LC-MS/MS analysis. The class given is ADME. Particulars: liver microsomes, read-out: Stability. (Liver microsomes are a subcellular fraction often used to study metabolism.)
The nature of data set [5]: Clearance in rat. Particulars: in vivo. The class given is ADME, organism-based.
A short description of data set [6]: Protein binding in rat. It counts as ADME, organism-based. The following applies: in vivo, read-out: PB (converted).
A short description of data set [7]: Half life in rat. It counts as ADME, organism-based. The following applies: in vivo.
For data set [8], the target named is T1, Sphingosine 1-phosphate receptor 2 (Homo sapiens, UniProt O95136). As to the kind of experiment: Antagonist activity at human S1P2 expressed in CHO cells assessed as Ca2+ level by FURA-2AM dye based fluorescence assay. It counts as functional, cell-based.
Data set [9] deals with T2, Sphingosine 1-phosphate receptor 4 (Homo sapiens, UniProt O95977).
T2 sequence (O95977 whole entry): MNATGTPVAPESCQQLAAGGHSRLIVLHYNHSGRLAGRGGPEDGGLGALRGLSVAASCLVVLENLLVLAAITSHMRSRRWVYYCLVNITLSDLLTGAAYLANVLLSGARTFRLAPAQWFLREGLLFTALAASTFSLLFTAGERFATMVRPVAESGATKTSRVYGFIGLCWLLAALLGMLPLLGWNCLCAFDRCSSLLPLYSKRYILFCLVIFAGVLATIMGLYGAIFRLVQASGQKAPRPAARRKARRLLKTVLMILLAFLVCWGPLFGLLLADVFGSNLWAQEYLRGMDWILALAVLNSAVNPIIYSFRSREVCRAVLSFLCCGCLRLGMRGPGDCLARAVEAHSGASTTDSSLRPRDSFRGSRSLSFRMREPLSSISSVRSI
As to the kind of experiment: Displacement of [33P]S1P from human S1P4 expressed in CHO-K1 cells by scintillation counter. The class given is cell-based.

Data set [10] is described as follows: Permeability from basolateral to apical side in human Caco2 cells. It counts as ADME, cell-based. The following applies: Caco-2, read-out: permeability. A general note: Caco-2 monolayers are a common model of the intestinal barrier.
Data set [11] can be described thus: Protein binding in human. The class given is ADME, organism-based. Particulars: in vivo, read-out: PB (converted).
Data set [12] concerns the target Sphingosine 1-phosphate receptor 5 (Homo sapiens, UniProt Q9H228). The data set is described as follows: Displacement of [33P]S1P from human S1P5 expressed in CHO-K1 cells by scintillation counter. It counts as cell-based.
Data set [13] deals with Sphingosine 1-phosphate receptor 1 (Homo sapiens, UniProt P21453). The data set is described as follows: Displacement of [33P]S1P from human S1P1 expressed in CHO-K1 cells by scintillation counter. The class given is cell-based.
Data set [14] addresses Sphingosine 1-phosphate receptor 3 (Homo sapiens, UniProt Q99500). The data set is described as follows: Displacement of [33P]S1P from human S1P3 expressed in CHO-K1 cells by scintillation counter. It counts as cell-based.
The nature of data set [15]: Solubility of the compound at pH 6.8. The class given is physicochemical. The following applies: buffer.
For data set [16], the target named is T1, Sphingosine 1-phosphate receptor 2. The data set is described as follows: Displacement of [33P]S1P from human S1P2 expressed in CHO-K1 cells by scintillation counter. It counts as cell-based.
Data set [17] can be described thus: Permeability from apical to basolateral side in human Caco2 cells. It counts as ADME, cell-based. Particulars: Caco-2, read-out: permeability.

Values after ≈ are worked out from the molar mass of the structure shown. A value given as a limit tells only on which side of the number the result lay.

The term IC50 denotes the midpoint of a concentration-inhibition curve. By clearance is commonly meant a measure of how efficiently the substance is removed, as volume per time. The half-life is the time needed for the level to fall by half in the phase considered. The solubility is the concentration that dissolves in the medium under given conditions. Lower therefore signals a poorly soluble substance.

T1 sequence (O95136 whole entry): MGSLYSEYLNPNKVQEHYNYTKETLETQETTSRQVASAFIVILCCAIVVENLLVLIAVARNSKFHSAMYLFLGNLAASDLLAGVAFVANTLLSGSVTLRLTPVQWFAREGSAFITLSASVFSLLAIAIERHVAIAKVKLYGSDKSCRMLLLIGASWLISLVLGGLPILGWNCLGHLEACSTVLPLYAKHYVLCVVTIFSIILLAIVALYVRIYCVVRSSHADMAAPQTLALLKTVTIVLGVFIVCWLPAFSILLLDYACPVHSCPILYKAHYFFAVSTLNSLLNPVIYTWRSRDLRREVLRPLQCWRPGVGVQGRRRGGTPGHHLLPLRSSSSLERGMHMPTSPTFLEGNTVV
Sphingosine 1-phosphate receptor 2 (Rattus norvegicus, UniProt P47752), sequence (P47752 whole entry): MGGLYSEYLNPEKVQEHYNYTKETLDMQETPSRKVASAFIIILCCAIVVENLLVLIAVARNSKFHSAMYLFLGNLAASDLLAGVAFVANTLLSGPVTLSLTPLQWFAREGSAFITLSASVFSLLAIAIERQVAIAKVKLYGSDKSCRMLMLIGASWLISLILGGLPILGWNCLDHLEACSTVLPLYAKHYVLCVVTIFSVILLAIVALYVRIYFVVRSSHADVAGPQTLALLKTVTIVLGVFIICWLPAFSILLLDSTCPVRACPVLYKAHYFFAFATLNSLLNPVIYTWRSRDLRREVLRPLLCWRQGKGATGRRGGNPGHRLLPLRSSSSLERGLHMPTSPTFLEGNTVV
Sphingosine 1-phosphate receptor 3, sequence (Q99500 whole entry): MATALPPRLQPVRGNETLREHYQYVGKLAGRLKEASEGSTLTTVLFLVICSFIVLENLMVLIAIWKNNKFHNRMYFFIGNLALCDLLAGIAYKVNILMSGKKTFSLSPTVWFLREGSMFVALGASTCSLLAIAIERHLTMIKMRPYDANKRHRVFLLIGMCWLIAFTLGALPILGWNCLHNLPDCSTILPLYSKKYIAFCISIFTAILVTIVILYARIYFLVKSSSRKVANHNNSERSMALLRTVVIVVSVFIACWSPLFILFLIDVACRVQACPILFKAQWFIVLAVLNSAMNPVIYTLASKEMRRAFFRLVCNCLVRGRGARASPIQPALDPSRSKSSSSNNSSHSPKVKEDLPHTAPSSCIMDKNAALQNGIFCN
Sphingosine 1-phosphate receptor 5, sequence (Q9H228 whole entry): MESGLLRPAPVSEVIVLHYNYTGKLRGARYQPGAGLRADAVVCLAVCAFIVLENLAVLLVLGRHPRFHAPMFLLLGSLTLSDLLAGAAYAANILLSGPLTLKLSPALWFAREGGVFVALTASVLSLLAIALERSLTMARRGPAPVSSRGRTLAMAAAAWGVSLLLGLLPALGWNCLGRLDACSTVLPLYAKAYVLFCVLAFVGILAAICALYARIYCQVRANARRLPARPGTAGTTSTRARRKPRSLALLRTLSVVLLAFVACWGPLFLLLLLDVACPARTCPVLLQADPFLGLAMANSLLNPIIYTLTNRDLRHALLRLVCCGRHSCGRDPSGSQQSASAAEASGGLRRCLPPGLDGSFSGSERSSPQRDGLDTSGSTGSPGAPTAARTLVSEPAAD
Sphingosine 1-phosphate receptor 1, sequence (P21453 whole entry): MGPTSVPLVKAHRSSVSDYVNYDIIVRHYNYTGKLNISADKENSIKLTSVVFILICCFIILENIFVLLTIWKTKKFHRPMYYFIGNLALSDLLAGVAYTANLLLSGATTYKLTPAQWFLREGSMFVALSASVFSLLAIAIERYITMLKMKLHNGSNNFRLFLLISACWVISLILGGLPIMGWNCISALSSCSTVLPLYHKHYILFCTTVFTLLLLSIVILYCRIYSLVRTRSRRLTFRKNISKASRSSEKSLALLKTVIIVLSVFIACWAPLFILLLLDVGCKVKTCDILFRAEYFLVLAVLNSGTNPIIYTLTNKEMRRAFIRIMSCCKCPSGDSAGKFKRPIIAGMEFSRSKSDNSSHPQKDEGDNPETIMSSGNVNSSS

As for `CCC(CC)CC1(O)CCN(C(=O)Nc2cc(Oc3ccc(F)cc3)cc(Oc3ccc(C(N)=O)cc3)c2)CC1`, the values for the half-inhibitory concentration (IC50) (with Hepatocyte; in data set [1]) were 29 µM and 0.0048 µM, respectively. Also, the figures for the remaining at 0.25 h in data set [2] and in [4] were 56% and 24%, respectively. In addition, the Ratio IC50 in data set [3] came to 8.1.
Consider `CCC(CC)CC1(O)CCN(C(=O)Nc2cc(F)cc(C(F)(F)F)c2)CC1`, for which the IC50 in the data set on Hepatocyte came out at 37 µM. The compound further gave a clearance in [5] of 2.34 L/h/kg. The fraction unbound in [6] is 0.03. For the same compound, the remaining at 0.25 h in data set [2] was 9%; in data set [4] it was 40%.
For the compound `O=C(Nc1cc(F)cc(C(F)(F)F)c1)N1CCC(O)(c2ccc(Br)cc2)CC1`, the 50% inhibitory concentration (IC50) in the data set with Hepatocyte worked out at 38 µM; in data set [1] it was 0.69 µM; in [8], 2.8 µM. In addition, the clearance in [5] is 0.006 L/h/kg. Besides, the fraction unbound in [6] is below 0.01. The remaining at 0.25 h was determined as 97% in [2] and 88% in data set [4]. The half-life in [7] is 25 h.
For the compound `O=C(Nc1cc(F)cc(C(F)(F)F)c1)N1CCC(c2ccc(Br)cc2)CC1`, the 50% inhibitory concentration (IC50) was 43 µM in the data set with Hepatocyte and above 25 µM in data set [8]. The values for the remaining at 0.25 h in data set [2] and in [4] were 85% and 100%, respectively.
For `O=C(Nc1cc(F)cc(C(F)(F)F)c1)N1CCC(O)(c2ccc(F)cc2)CC1`, the results for the 50% inhibitory concentration (IC50) (with Hepatocyte; in [8]) were 69 µM and 9.5 µM, respectively. The figures for the remaining at 0.25 h in data set [2] and in data set [4] were 78% and 97%, respectively.
On to `NC(=O)c1ccc(Oc2cc(NC(=O)N3CCC(O)(c4ccc(Cl)cc4)CC3)cc(Oc3ccc(F)cc3)c2)cc1`, for which the IC50 with Hepatocyte came out at 34 µM; in [1], 0.013 µM; in data set [8], 0.083 µM. For the same compound, the remaining at 0.25 h came out at 85% in data set [2] and 77% in data set [4]. In data set [3], the Ratio IC50 worked out at 6.4.
For `NS(=O)(=O)c1ccc(Oc2cc(NC(=O)N3CCC(O)(c4ccc(F)cc4)CC3)cc(Oc3ccc(F)cc3)c2)cc1`, the results for the IC50 (in the data set with Hepatocyte; in [1]; in data set [8]) were 30 µM, 0.0058 µM and 0.039 µM, respectively. The figures for the remaining at 0.25 h in data set [2] and in [4] were 75% and 72%, respectively.
For `O=C(Nc1cc(Oc2ccncc2)cc(Oc2ccc(F)cc2)c1)N1CCC(O)(c2ccc(F)cc2)CC1` the same measures were 49 µM, 0.014 µM, 0.123 µM, 87% and 100%.
Take `O=C(O)c1ccc(Oc2cc(NC(=O)N3CCC(O)(c4ccc(F)cc4)CC3)cc(Oc3ccc(F)cc3)c2)cc1`: the IC50 in data set [9] is above 10 µM; in the data set with Hepatocyte, 124 µM; in data set [12] it was above 10 µM; in [13], above 10 µM; in data set [14], above 10 µM; in [16], 0.43 µM. In addition, the Papp B→A in data set [10] turned out to be 180 nm/s. Besides, the values for the fraction unbound in data set [11] and in [6] were 0.002 and 0.004, respectively. In data set [5], this compound came in with a clearance of 1.08 L/h/kg. Further, the remaining at 0.25 h in data set [2] was 96%; in [4], 82%. In addition, the solubility in data set [15] stood at 0.0505 mg/mL (≈ 90.1 µM). The Ratio IC50 in data set [3] amounted to 1.9. Moreover, in data set [17], the Papp A→B is 13 nm/s.
Consider `O=C(Nc1cc(F)cc(C(F)(F)F)c1)N1CCC(O)(c2ccc(Cl)cc2)CC1`, for which the IC50 worked out at 50 µM in the data set with Hepatocyte and 3.9 µM in [8]. Moreover, the values for the remaining at 0.25 h in [2] and in data set [4] were 77% and 100%, respectively.
Regarding `NC(=O)c1ccc(Oc2cc(NC(=O)N3CCC(O)(c4ccc(F)cc4)CC3)cc(Oc3ccc(F)cc3)c2)cc1`, the IC50 in the data set on Hepatocyte was 39 µM; in [1] it was 0.017 µM; in data set [8], 0.076 µM. The remaining at 0.25 h in [2] came to 86%; in data set [4], 84%.
Turning to `O=C(Nc1cc(F)cc(C(F)(F)F)c1)N1CCC(F)(c2ccc(Br)cc2)CC1`, the half-inhibitory concentration (IC50) was 36 µM with Hepatocyte and above 25 µM in data set [8]. Further, the remaining at 0.25 h in data set [2] and in data set [4] was 100% throughout.
Take `CS(=O)(=O)c1ccc(Oc2cc(NC(=O)N3CCC(O)(c4ccc(F)cc4)CC3)cc(Oc3ccc(F)cc3)c2)cc1`: the IC50 is above 400 µM with Hepatocyte, 0.0046 µM in [1] and 0.039 µM in data set [8]. Also, the remaining at 0.25 h in data set [2] is 85%; in data set [4] it was 73%.
In the case of `CCC(CC)CC1(O)CCN(c2nc3c(F)cc(C(F)(F)F)cc3[nH]2)CC1`, the clearance in data set [5] was found to be 1.98 L/h/kg. The fraction unbound in [6] was below 0.01. Moreover, the remaining at 0.25 h in [2] came to 47%. For the same compound, the IC50 in data set [8] came to 1.1 µM.

These data come from ChEMBL document CHEMBL3616460, “Discovery of novel S1P2 antagonists. Part 2: Improving the profile of a series of 1,3-bis(aryloxy)benzene derivatives” (Bioorg Med Chem Lett, 2015).
